Assay: in vitro
Conditions: human, hela cells, % viability

| Compound | viability at 28.5 h, 10 µM [%] |
| --- | --- |
| Cc1nc2ccc(C(=O)NC3CCCOC3)cc2s1 (stereo not drawn) [CBK282509] | 82.8 |
| OC(CN1CCC(O)(c2ccc(F)cc2)CC1)c1ccc(F)cc1 (stereo not drawn) [CBK282510] | 79 |
| CC(=O)c1cn(CCC(=O)NC2CCCOC2)c2ccccc12 (stereo not drawn) [CBK282515] | 114 |
| CN1CCCC(NC(=O)C2CCN(Cc3ccc(F)cc3)CC2)C1 (stereo not drawn) [CBK282516] | 119 |
| CCCN1C[C@H](NC(=O)C2CC2)[C@@H](c2ccc(OC)cc2)C1 [CBK282518] | 116 |
| O=C(NC1CCCOC1)C1CCN(Cc2ccccc2Cl)CC1 (stereo not drawn) [CBK282520] | 107 |
| CCC(CC(=O)NC1CCCOC1)c1c[nH]c2ccccc12 (stereo not drawn) [CBK282521] | 119 |
| CC(Cc1cccs1)NC(=O)c1cc2c([nH]c1=O)CCCCC2 (stereo not drawn) [CBK282523] | 109 |
| C=CCC1(CC=C)CCN1C(=O)c1cc2c([nH]c1=O)CCCCC2 [CBK282524] | 103 |
| Cc1nc[nH]c1CN(Cc1cccc(F)c1)CC1CCCO1 (stereo not drawn) [CBK282525] | 105 |
| C=Cn1ncc(CN2CCN(C3CCCCC3)C(=O)C2)c1C [CBK282526] | 107 |
| CC(=O)c1cc(C(=O)Nc2cnn(Cc3ccc(F)cc3)c2)cs1 [CBK282528] | 104 |
| CC(=O)c1cc(C(=O)N2CCC(O)(c3ccccc3C)CC2)cs1 [CBK282532] | 92.8 |
| Cc1c(C(=O)NCc2cc(C3CC3)[nH]n2)[nH]c2c(Cl)cccc12 [CBK282533] | 70.2 |
| CCCN1CCC(CNC(=O)c2cc(C3CC3)nn2C)CC1 [CBK282536] | 101 |
| CCc1nc2ccc(NC(=O)c3csc(C(C)=O)c3)cc2[nH]1 [CBK282538] | 114 |
| Cc1c(C(=O)N2CCN(C3CCCCC3)C(=O)C2)[nH]c2ccccc12 [CBK282539] | 99.3 |
| COc1ccc2cc(C(=O)NCCCc3ccccn3)n(C)c2c1 [CBK282545] | 103 |
| Cc1nn(CCC(=O)NC(c2ccccc2)c2cccnc2)c(C)c1C (stereo not drawn) [CBK282547] | 86.3 |
| Cc1cc(C(=O)NCCn2ccc(C)n2)c2cccc(Cl)c2n1 [CBK282549] | 79.6 |
| Cc1cc(C(=O)NCCCC2CCOC2)c2cccc(Cl)c2n1 (stereo not drawn) [CBK282550] | 91.7 |
| COCCNC(=O)Cn1c(-c2cccs2)cc2cccnc21 [CBK282554] | 109 |
| C[S+]([O-])CCNC(=O)Cn1c(-c2cccs2)cc2cccnc21 (stereo not drawn) [CBK282556] | 89.3 |
| COCC(C)NC(=O)Cn1c(-c2cccs2)cc2cccnc21 (stereo not drawn) [CBK282557] | 81.8 |

| Compound | viability at 28.5 h, 10 µM [%] |
| --- | --- |
| CN1CCN(C(=O)Cn2c(-c3cccs3)cc3cccnc32)CC1 [CBK282558] | 97 |
| CC(=O)c1cc(C(=O)N(C)CCOc2ccccc2)cs1 [CBK282560] | 99.6 |
| C=Cn1cc(CN2CCN(C3CCCCC3)C(=O)C2)c(C)n1 [CBK282561] | 109 |
| CN1CCCC(NC(=O)c2cc(-c3cccs3)no2)C1 (stereo not drawn) [CBK282564] | 87.2 |
| O=C(NC1CCCOC1)c1cc(-c2cccs2)no1 (stereo not drawn) [CBK282565] | 82 |
| CC(C)c1cc(C(=O)NCC2CCCN(C(C)C)C2)n(C)n1 (stereo not drawn) [CBK282566] | 95.8 |
| CC(C)c1cc(C(=O)N(C)Cc2cccc3ncccc23)n(C)n1 [CBK282567] | 86.4 |
| CN1Cc2ccccc2CC1C(=O)N1CCc2ncc(Cl)cc2C1 (stereo not drawn) [CBK282568] | 85.5 |
| CC(C)N1CCC(CNC(=O)Cn2ccc3ccc(F)cc32)CC1 [CBK282571] | 89.9 |
| C=Cn1ncc(CN2CCc3[nH]c4ccc(OCC)cc4c3C2)c1C [CBK282574] | 89.7 |
| Cc1nc(C)n(C(C)CNC(=O)Cc2coc3cc(C)c(C)cc23)n1 (stereo not drawn) [CBK282577] | 106 |
| Cc1ccn(CCNC(=O)Cc2coc3cc(C)c(C)cc23)n1 [CBK282578] | 107 |
| CC1(C(=O)Nc2cnn(Cc3ccc(F)cc3)c2)CCCO1 (stereo not drawn) [CBK282585] | 104 |
| Cc1nc(-c2ccccc2)c(CC(=O)NC2CCCOC2)s1 (stereo not drawn) [CBK282586] | 93.4 |
| CC(=O)N1CCCc2cc(C(O)CN3CCC(C)CC3)ccc21 (stereo not drawn) [CBK282588] | 87.3 |
| Cc1c(CN(Cc2ccc(F)cc2)CC2CCCO2)cnn1C (stereo not drawn) [CBK282589] | 86 |
| CC(=O)NC1CCN(CC2(c3cccc(F)c3)CCCC2)CC1 [CBK282590] | 95.7 |
| COC(=O)CCn1c(-c2ccncc2)cc2cccnc21 [CBK282592] | 65.2 |
| COC(=O)CCn1c(-c2cccnc2C)cc2cccnc21 [CBK282593] | 105 |
| CC(C)n1nccc1C(=O)NC1CCN(Cc2cccc(F)c2)CC1 [CBK282596] | 84.5 |
| OCCN(Cc1cccs1)Cc1c[nH]nc1-c1cccs1 [CBK282599] | 86 |
| CCCn1nc(C)c(CN(C)Cc2n[nH]c3c2CCCC3)c1C [CBK282600] | 95.4 |
| CN1CCC(CNC(=O)C2(c3ccccc3F)CC2)(N(C)C)CC1 [CBK282604] | 91.6 |
| Cc1ccn(CCNC(=O)c2[nH]c3c(Cl)cccc3c2C)n1 [CBK282608] | 97.9 |

| Compound | viability at 28.5 h, 10 µM [%] |
| --- | --- |
| Cc1ccc2c(c1)c(C)c(C(=O)NCCn1ccc(C)n1)n2C [CBK282609] | 106 |
| CN1C[C@]2(CC[C@@H](C(=O)NC3CC3)CC2)Oc2ccccc2C1=O [CBK282610] | 102 |
| Cc1nc(C)n(C(C)CNC(=O)Cn2ccc3ccc(F)cc32)n1 (stereo not drawn) [CBK282612] | 95.5 |
| Cc1cc2occ(CC(=O)NCC(C)n3cncn3)c2cc1C (stereo not drawn) [CBK282614] | 101 |
| CN1CCC(CN(C)Cc2ccc3cccc(Cl)c3n2)C1 (stereo not drawn) [CBK282615] | 90.2 |
| Cc1c(CN(C)CC2CCN(C)C2)cnn1Cc1ccccc1 (stereo not drawn) [CBK282616] | 105 |
| C=C(C)CN1CCN(C(=O)c2ccnc3ccc(Cl)cc23)CC1 [CBK282617] | 111 |
| CC(C)(C)NC(=O)CCn1c(-c2ccncc2)cc2cccnc21 [CBK282620] | 95.4 |
| Cc1cc2cc(C(=O)NCC3(N(C)C)CCN(C)CC3)ccc2o1 [CBK282623] | 90.2 |
| Cc1cc2cc(C(=O)NCCCN3Cc4ccccc4C3)ccc2o1 [CBK282624] | 97.4 |
| C=C(C)CN1CCN(C(=O)c2c(C)oc3ccc(O)cc23)CC1 [CBK282626] | 95 |
| Cc1oc2ccc(O)cc2c1C(=O)N(C)C(C)Cc1ccccn1 (stereo not drawn) [CBK282627] | 96.2 |
| Cc1nc2ccc(C(=O)NC(C)(C)CN3CCCC(C)C3)cc2[nH]1 (stereo not drawn) [CBK282629] | 85.3 |
| CS(=O)(=O)N1CC=CC1C(=O)NCCCc1ccc(F)cc1 (stereo not drawn) [CBK282631] | 85.5 |
| COC(=O)CCn1c(-c2ccccn2)cc2cccnc21 [CBK282634] | 89.8 |
| C=CCC1(CC=C)CCN1C(=O)c1sc2ncn(C)c(=O)c2c1C [CBK282637] | 84.7 |
| C=C(C)CN1CCN(C(=O)C2Cc3cc(Cl)ccc3O2)CC1 (stereo not drawn) [CBK282639] | 89 |
| CN(CCN1CCCCC1)C(=O)C1Cc2cc(Cl)ccc2O1 (stereo not drawn) [CBK282640] | 95.4 |
| CC(C)N1CCC(CNC(=O)c2cccc(N3CCCC3=O)c2)CC1 [CBK282641] | 104 |
| Cc1ccn(CCNC(=O)c2cccc(N3CCCC3=O)c2)n1 [CBK282642] | 105 |
| CC(C)c1cc(C(=O)NC(C)(C)CN2CCCCC2C)n(C)n1 (stereo not drawn) [CBK282644] | 96.4 |
| CN(C)CC(C)(C)CN1C2CCC1CC(O)(c1ccccc1F)C2 (stereo not drawn) [CBK282648] | 94.4 |
| Cn1cncc1CN1C2CCC1CC(O)(c1ccccc1F)C2 (stereo not drawn) [CBK282649] | 107 |
| CCC(CC(=O)NCc1c(C)n[nH]c1C)c1c[nH]c2ccccc12 (stereo not drawn) [CBK282651] | 87.1 |

| Compound | viability at 28.5 h, 10 µM [%] |
| --- | --- |
| O=C(NCCCc1ccccn1)c1cc(-c2cccs2)no1 [CBK282652] | 63.9 |
| Cc1cccc(-c2noc(C)c2C(=O)NCCn2ccc(C)n2)c1 [CBK282656] | 96.4 |
| CCC(NC(=O)CCN1Cc2ccccc2C1=O)c1ccc(F)cc1 (stereo not drawn) [CBK282657] | 104 |
| CCOc1ccc2[nH]c3c(c2c1)CN(C(=O)C1(C)CCCO1)CC3 (stereo not drawn) [CBK282659] | 86.2 |
| CC1(C(=O)N2CCc3onc(-c4ccccc4F)c3C2)CCCO1 (stereo not drawn) [CBK282660] | 88.1 |
| C=CCC1(CC=C)CCN1C(=O)Cc1c(C)nc(SC)[nH]c1=O [CBK282661] | 86.9 |
| CCn1cc(CN2C3CCC2CC(O)(c2ccccc2F)C3)cn1 (stereo not drawn) [CBK282662] | 86.5 |
| CCn1ncc(CN2C3CCC2CC(O)(c2ccccc2F)C3)c1C (stereo not drawn) [CBK282663] | 85 |
| CCn1cc(CC(=O)NCCn2ccc(C)n2)c2ccccc21 [CBK282670] | 96.7 |
| CCc1cccc2c(CC(=O)N(C)CCN(C)C)c(C)[nH]c12 [CBK282673] | 102 |
| Cc1ccc2[nH]c(C)c(CC(=O)N(C)CCN(C)C)c2c1 [CBK282674] | 105 |
| Cc1nn(CCC(=O)NC(C)(C)CN2CCCC(C)C2)c(C)c1C (stereo not drawn) [CBK282676] | 91.4 |
| O=C(CSc1nccc2ccccc12)NC1CCCOC1 (stereo not drawn) [CBK282677] | 85.2 |
| Cc1ccn(CCNC(=O)CSc2nccc3ccccc23)n1 [CBK282678] | 104 |
| Cc1ccn(CCNC(=O)c2cc(-c3cccs3)no2)n1 [CBK282679] | 78.9 |
| CN(C)[C@@H]1CN(C(=O)C2CC2)C[C@H]1c1cn(C)c2ccccc12 [CBK282681] | 110 |
| CC(C)N(C(=O)Cn1c(-c2ccco2)cc2cccnc21)C(C)C [CBK282682] | 99.4 |
| CC(C)c1cc(C(=O)NCCN2CCc3ccccc32)n(C)n1 [CBK282685] | 86.7 |
| CC(C)N1CCCC(CNC(=O)C2Cc3cc(Cl)ccc3O2)C1 (stereo not drawn) [CBK282686] | 92.8 |
| CC1CCCCN1C(=O)CCn1c(-c2ccncc2)cc2cccnc21 (stereo not drawn) [CBK282689] | 105 |
| Cc1oc2ccc(O)cc2c1C(=O)N(C)CCOc1ccccc1 [CBK282696] | 111 |

Reference: article PMC12040169 (PLOS Biology, 2025)
